According to PMC7822874, “Chemoprotective antimalarials identified through quantitative high-throughput screening of Plasmodium blood and liver stage parasites” (Scientific Reports, 2021):
Where “and” joins values, the source holds several entries; their conditions need not be identical. Equal values may be shown once. Read-outs that look alike come from different tables or passages of the source.

Experiments:
[1] = system: T1, Plasmodium falciparum Dd2-attB-ScDHODH (transgenic line expressing yeast DHODH), asexual blood stages; experiment: organism not typed; parameters: replicate k of 3 (each line is one of three independent assays; the three lines of one compound and parasite line follow each other)
T1 construct: Dd2-attB-ScDHODH, the transgenic line that expresses yeast DHODH
Procedure: (§1) The overexpression of the fumarate-dependent yeast DHODH confers resistance to compounds that inhibit the parasite mETC, or the parasite DHODH enzyme that depends on ubiquinone provided by the parasite mETC. Assays were performed in three independent assays on a subset of compounds, and differences between the Dd2-attB parental line and the ScDHODH transgenic line were analyzed using two-sided Student’s t-tests.

[2] = system: T2, Plasmodium falciparum Dd2-attB (parental line), asexual blood stages; experiment: microbe, parasite or virus in culture; parameters: replicate k of 3 (each line is one of three independent assays; the three lines of one compound and parasite line follow each other); conditions: n = 1; for Individual replicates / Log AC50 (M): 72 h; for AC50: Plasmodium falciparum, DD2, 72 h, read-out: Individual replicates / Log AC50 (converted)
T2 construct: Dd2-attB, the isogenic parental line
Procedure: as §1

[3] = 72 h; n = 1; read-out: Individual replicates / Log AC50 (converted)

Row | Compound | Individual replicates / Log AC50 (M) ([1]; 72 h, n = 1) | AC50 [1, 3] [M] | Individual replicates / Log AC50 (M) [2] | AC50 [2] [µM] | AC50 ([1]; 72 h, read-out: Individual replicates / Log AC50 (M) (converted); n = 1) | Individual replicates / Log AC50 (M) ([1]; 72 h; n = 1)
1 | O=C(Nc1ccccc1F)c1ccc(Cn2nc(N3CCN(c4ccccc4)CC3)ccc2=O)o1 [NCGC00127944-02] | -5.0986 Log AC50 (M) and -5.0486 Log AC50 (M) | 8.94e-06 | -5.1486 Log AC50 (M) and -5.0986 Log AC50 (M) | 7.97 |  | 
2 | O=C(O)c1ccnc(-n2ncc(C(OCCN3CCCCC3)c3ccc(Cl)cc3)c2-c2ccccc2)c1 (centres unmarked) [NCGC00487049-01] | -4.7486 Log AC50 (M) | 1.59e-05 | -4.7986 Log AC50 (M) and -4.8486 Log AC50 (M) | 15.9 |  | 
3 | Cc1ccccc1C(OCCN1CCCCC1)c1cc2nccc(Cl)c2s1 (centres unmarked) [NCGC00481525-01] | -5.0486 Log AC50 (M) | 1e-05 | -5.0486 Log AC50 (M) and -4.9986 Log AC50 (M) | 8.94 |  | 
4 | Oc1ccc(COc2cccc3ccccc23)c2cccnc12 [NCGC00183380-01] |  |  | -4.7986 Log AC50 (M) and -4.7486 Log AC50 (M) | 20 | 1.59e-05 | 
5 | Cc1nn2c(c1-c1ccccc1-c1ccccc1)N(CC1CC1)CCC2 [NCGC00420435-02] | -4.7486 Log AC50 (M) and -4.8486 Log AC50 (M) | 1.59e-05 | -4.7986 Log AC50 (M) and -4.8486 Log AC50 (M) | 14.2 |  | 
6 | c1ccc(CCn2nc(-c3ccccn3)nc2CCCN2CCCCC2)cc1 [NCGC00389173-01] | -5.2486 Log AC50 (M) and -5.3986 Log AC50 (M) and -5.0486 Log AC50 (M) |  | -5.2986 Log AC50 (M) and -5.0986 Log AC50 (M) and -5.4486 Log AC50 (M) |  |  | 
7 | COC(=O)c1ccc(O)c2ncc(-c3ccc(C(=O)N4CCN(C)CC4)cc3)cc12 [NCGC00189505-01] | -4.8986 Log AC50 (M) and -5.1486 Log AC50 (M) | 6.33e-06 | -5.2486 Log AC50 (M) and -5.0486 Log AC50 (M) | 5.03 |  | 
8 | Cc1cccc(CN2CCCn3nc(C)c(-c4ccccc4OCc4ccccc4)c32)n1 [NCGC00499716-01] | -4.8486 Log AC50 (M) | 1.26e-05 | -4.8986 Log AC50 (M) and -4.7486 Log AC50 (M) | 15.9 |  | 
9 | COC(=O)c1ccnc(NCc2ccc(O)c3ncccc23)c1 [NCGC00241031-01] | -4.7986 Log AC50 (M) | 1.26e-05 | -4.8986 Log AC50 (M) and -4.7486 Log AC50 (M) | 15.9 |  | 
10 | Oc1ccc(COCc2ccc(F)cc2)c2cccnc12 [NCGC00183381-01] | -4.7486 Log AC50 (M) and -4.7986 Log AC50 (M) | 1.59e-05 | -4.7986 Log AC50 (M) | 17.8 |  | 
11 | Oc1ccc(CNc2cc(Cl)ccn2)c2cccnc12 [NCGC00241028-01] | -5.3486 Log AC50 (M) and -5.2986 Log AC50 (M) | 6.33e-06 | -5.2986 Log AC50 (M) | 5.03 |  | 
12 | C/C=C(\C#N)C(=O)N1CCCN(c2cc(NCCC(=O)OC)nc(-c3ccccn3)n2)CC1 [NCGC00420778-01] |  | 1.42e-05 |  | 15.9 |  | 
13 | O=C(CCc1ccccc1)NC(c1cccs1)c1cc(Cl)c2cccnc2c1O (centres unmarked) [MLS000703748-02] |  | 3.99e-06 | -5.4486 Log AC50 (M) | 3.99 |  | -5.3986 Log AC50 (M)
14 | CCCCN1CCCc2cc(CN(CCCN3CCOCC3)C(=O)Nc3ccc(CC)cc3)ccc21 [NCGC00140595-02] | -5.0486 Log AC50 (M) | 7.97e-06 | -5.0986 Log AC50 (M) | 7.97 |  | 
15 | O=C(NCCCc1ccccc1)c1cccc(-c2cc(O)c3ncccc3c2)c1 [NCGC00244536-01] | -4.8986 Log AC50 (M) |  | -5.2486 Log AC50 (M) and -5.1986 Log AC50 (M) | 7.1 |  | 
16 | CCCCOC(=O)c1ccnc2cc(C(=O)N(CCN(C)C)c3ccccc3)sc12 [NCGC00481684-01] |  | 1.42e-05 | -4.7986 Log AC50 (M) | 17.8 |  | 
17 | O=C(Nc1ccccn1)c1ccc(-c2cc(O)c3ncccc3c2)cc1 [NCGC00247739-01] | -4.7986 Log AC50 (M) | 8.94e-06 | -4.9986 Log AC50 (M) and -4.8986 Log AC50 (M) | 7.97 |  | 
18 | O=C(O)c1ccc(O)c2ncc(N3CCOCC3)cc12 [NCGC00241036-02] |  | 1e-05 |  | 14.2 |  | 
19 | C=CC(=O)Nc1cccc(C(OCCN2CCCCC2)c2cc3nccc(C(=O)OC(C)C)c3s2)c1 (centres unmarked) [NCGC00493267-01] | -5.0486 Log AC50 (M) and -4.7986 Log AC50 (M) | 7.97e-06 | -5.1486 Log AC50 (M) and -5.0486 Log AC50 (M) | 8.94 |  | 

Row | Compound | Individual replicates / Log AC50 (M) ([1]; 72 h, n = 1) | AC50 [1, 3] [M] | Individual replicates / Log AC50 (M) [2] | AC50 [2] [µM] | AC50 ([1]; 72 h, read-out: Individual replicates / Log AC50 (M) (converted); n = 1) | Individual replicates / Log AC50 (M) ([1]; 72 h; n = 1)
20 | O=C(c1cccc(-c2cc(O)c3ncccc3c2)c1)N1CCCCC1 [NCGC00244533-01] | -5.1486 Log AC50 (M) and -4.9486 Log AC50 (M) | 7.1e-06 | -5.0486 Log AC50 (M) and -5.0986 Log AC50 (M) | 6.33 |  | 
21 | COc1ccc(NC2=C(c3ccc(C(F)(F)F)cc3)C(=O)c3ccccc32)cc1 [NCGC00107310-02] | -5.1486 Log AC50 (M) and -5.2986 Log AC50 (M) |  | -6.3986 Log AC50 (M) and -6.2986 Log AC50 (M) and -6.5486 Log AC50 (M) |  |  | 
22 | O=C(O)c1ccc(O)c2ncc(N3CCCN(C4CCCC4)CC3)cc12 [NCGC00241765-01] | -4.7486 Log AC50 (M) and -4.6986 Log AC50 (M) | 2e-05 | -4.7486 Log AC50 (M) | 17.8 |  | 
23 | O=C(c1ccc(-c2cnc3c(O)cccc3c2)cc1)N1CCNCC1 [NCGC00189507-01] | -4.7986 Log AC50 (M) | 1e-05 | -4.8986 Log AC50 (M) and -4.9986 Log AC50 (M) | 14.2 |  | 
24 | CCOC(=O)c1ccc(O)c2ncc(-c3ccc(C(=N)N)cc3)cc12 [NCGC00241050-01] |  | 2e-05 |  | 17.8 |  | -4.6986 Log AC50 (M)
25 | Cc1ccc(C)c(NC2=C(c3ccc(C(F)(F)F)cc3)C(=O)c3ccccc32)c1 [NCGC00107302-02] | -5.0486 Log AC50 (M) and -4.9486 Log AC50 (M) and -4.9986 Log AC50 (M) |  | -5.8486 Log AC50 (M) and -5.6486 Log AC50 (M) (2×) |  |  | 
26 | O=C(NCCCN1CCCC1)c1cccc(-c2cc(O)c3ncccc3c2)c1 [NCGC00247742-01] |  | 1.78e-05 | -4.7986 Log AC50 (M) | 17.8 |  | -4.7486 Log AC50 (M)
27 | O=C(CC[S+](=O)([O-])c1nc(-c2cccs2)cc(C(F)(F)F)n1)Nc1ccc(OC(F)(F)F)cc1 [NCGC00103927-03] | -4.8486 Log AC50 (M) | 1.59e-05 | -4.7986 Log AC50 (M) | 17.8 |  | 
28 | O=C(O)c1ccc(O)c2ncc(-c3ccc(N4CCOCC4)cc3)cc12 [NCGC00241754-01] |  | 1.42e-05 | -4.7986 Log AC50 (M) | 15.9 |  | 
29 | CC(=O)Nc1cccc(-c2csc(Nc3cc(C)ccn3)n2)c1 [MLS000550799-02] | -4.7486 Log AC50 (M) |  | -4.7486 Log AC50 (M) and -5.0986 Log AC50 (M) and -4.9486 Log AC50 (M) |  |  | 
30 | CC(OCCN1CCCCC1)c1cnn(-c2cc(CO)ccn2)c1-c1cccc(-c2ccccc2)c1 (centres unmarked) [NCGC00479246-01] | -5.3486 Log AC50 (M) | 3.56e-06 | -5.5486 Log AC50 (M) and -5.3986 Log AC50 (M) | 3.56 |  | 
31 | COC(=O)c1ccnc2cc(C(OCCC3CCCCC3)c3ccccc3Cl)[nH]c12 (centres unmarked) [NCGC00421833-01] | -4.7486 Log AC50 (M) and -4.7986 Log AC50 (M) | 1.78e-05 | -4.7986 Log AC50 (M) and -4.7486 Log AC50 (M) | 15.9 |  | 
32 | Oc1ccc(/C=C/c2ccccc2F)c2cccnc12 [NCGC00184903-01] | -4.9986 Log AC50 (M) and -5.1986 Log AC50 (M) | 6.33e-06 | -5.2486 Log AC50 (M) and -5.1486 Log AC50 (M) | 6.33 |  | 
33 | CC1(C)OB(c2ccc(O)c3ncc(N4CCNCC4)cc23)OC1(C)C [NCGC00241053-01] | -5.0486 Log AC50 (M) and -4.9986 Log AC50 (M) | 7.1e-06 | -4.8986 Log AC50 (M) and -5.0486 Log AC50 (M) | 8.94 |  | 
34 | Oc1cc(NCCN2CCOCC2)cc2cccnc12 [NCGC00183799-01] |  | 8.94e-06 | -5.1486 Log AC50 (M) and -5.2486 Log AC50 (M) | 6.33 |  | 
35 | Oc1ccc(CNCc2ccc3c(c2)OCO3)c2cccnc12 [NCGC00183368-01] | -4.7486 Log AC50 (M) | 1.59e-05 | -4.7986 Log AC50 (M) | 15.9 |  | 
36 | COC(=O)c1ccnc2cc(C(OCCN3CCCCC3)c3ccccc3Cl)[nH]c12 (centres unmarked) [NCGC00420857-01] | -5.0986 Log AC50 (M) | 5.03e-06 | -5.2986 Log AC50 (M) and -5.1986 Log AC50 (M) | 4.48 |  | 
37 | CCOC(=O)CCNc1cc(N2CCc3ccccc3CC2)nc(-c2cccnc2)n1 [NCGC00351550-02] | -5.0986 Log AC50 (M) and -4.7986 Log AC50 (M) |  | -4.8486 Log AC50 (M) (2×) and -4.7486 Log AC50 (M) |  |  | 
